≈ marks a conversion by molar mass, not a printed value.
Assays:
[1] = Acute toxicity in the mouse (LD50); conditions: in vivo, male CD1 mouse, 3 days observation
Procedure: Acute toxicities of the compounds according to the invention have been determined in the male mouse CD1 (Charles RIVER) both intravenously and orally. The LD50 were calculated after observation for 3 days by the method of REED, JJ. and MUENCH, H. (Am. J. Hy, 27 493, 1938).

[2] = system: tachycardia induced by isoproterenol; assay: Beta-sympatholytic activity: antagonism of isoproterenol-induced tachycardia in the non-anesthetized rabbit; format: in vivo; conditions: for Maximum Inhibition of tachycardia (as a %): isoproterenol 0.010 mg/kg i.v.
Procedure: The technique consists of evaluating the antagonism exerted by the products with regard to induced tachycardia, in an alert rabbit, by a sympatho-stimulant agent, isoproterenol, administered in a dose of 0.010 mg/kg intravenously. The animal is placed in a restraining box and the marginal vein of the ear is catheterized. The animal's electrocardiogram is picked up by two electrodes implanted in shunt DII and connected to a telemetric transmitter. A polygraph, coupled to a receiver, simultaneously records the electrocardiogram and the cardiac rhythm by integration of the waves R.
First of all, one makes certain of the stability and reproducibility of isoprenalinic tachycardia and the substance to be studied is administered. In the case of intravenous administration of the products, the injections of isoproterenol are then repeated 5 minutes later, then every 15 minutes, until the tachycardia returns to its initial intensity. When the products are administered orally, the injections of the beta-stimulant are repeated 15, 30, 45 and 60 minutes, then 2, 3, 5, 24 and 48 hours afterwards.
The beta-sympatholytic activity is expressed by the maximum percentage decrease of the tachycardia induced by isoproterenol. The total duration of the effect is also noted.

rabbit's heart = assay: Coronaro-dilatory activity on the isolated rabbit heart (technique derived from Langendorff)
Procedure: In this technique, the survival liquid perfusing the heart contains 0.5 I.U./l post-hypophysis intended for permanently maintaining a slight vaso-constriction of the coronary vascular system. The products to be studied are administered in the region of the aortic canal in a volume of 1 cm^3 over a period of 1 minute. The results are expressed as a percentage variation of the coronary output after the injection of the product with respect to the initial output, the output being measured by integration of the frequency of drops of survival liquid escaping from the heart after having passed through the coronary system.

[3] = system: removed duodenum of the rat, contractions caused by acetylcholine; assay: Spasmolytic activity on the detached duodenum of the rat, neurotrope (versus acetylcholine; Magnus)
Description: (§1) The spasmolytic neurotropes inhibit the contractions of the organ caused by acetylcholine,whereas the musculotropes prevent the spasms induced by barium chloride. The following table summarises the results expressed as a 50% effective concentration (EC50) in mg/l.

[4] = system: removed duodenum of the rat, spasms induced by barium chloride; assay: Spasmolytic activity on the detached duodenum of the rat, musculotrope (versus BaCl2; Magnus)
Description: as §1

Row | Structure (SMILES) | LD50 at 72 h ([1]; iv, intravenously) | LD50 at 72 h ([1]; po, orally) | Duration of Inhibiting effect ([2]; intravenous dose 0.5 mg/kg) | Maximum Inhibition of tachycardia (as a %) ([2]; intravenous dose 0.5 mg/kg) | Duration of Inhibiting effect ([2]; intravenous dose 1 mg/kg) | Maximum Inhibition of tachycardia (as a %) ([2]; intravenous dose 1 mg/kg) | Duration of Inhibiting effect ([2]; oral dose 17.5 mg/kg) | Maximum Inhibition of tachycardia (as a %) ([2]; oral dose 17.5 mg/kg) | Duration of Inhibiting effect ([2]; oral dose 35 mg/kg) | Maximum Inhibition of tachycardia (as a %) ([2]; oral dose 35 mg/kg) | Duration of Inhibiting effect ([2]; oral dose 75 mg/kg) | Maximum Inhibition of tachycardia (as a %) ([2]; oral dose 75 mg/kg) | Duration of Inhibiting effect ([2]; oral dose 150 mg/kg) | Maximum Inhibition of tachycardia (as a %) ([2]; oral dose 150 mg/kg) | EC50 [3] | EC50 [4] | also measured
1 | CC(C)NCC(O)COc1ccccc1[C@@H]1C[C@H]2CC[C@@H]1C2 (relative stereo) [Example 1, 1-isopropylamino-3-[2-(2-norbornyl exo)phenoxy]propan-2-ol] | 60 mg/kg | 800 mg/kg | more than 2 hrs | 54% | more than 2 hrs | 86% | approx. 24 hrs | 73% | approx. 48 hrs | 88% | approx. 48 hrs | 80% | more than 48 hrs | 82% | 0.18 µg/mL (≈ 0.593 µM) | 0.15 µg/mL (≈ 0.494 µM) | Duration of Inhibiting effect ([2]; intravenous dose 0.1 mg/kg): approx. 50 minutes; Maximum Inhibition of tachycardia (as a %) ([2]; intravenous dose 0.1 mg/kg): 24%; Duration of Inhibiting effect ([2]; intravenous dose 0.3 mg/kg): approx 21/2; Maximum Inhibition of tachycardia (as a %) ([2]; intravenous dose 0.3 mg/kg): 67%; Duration of Inhibiting effect ([2]; oral dose 9 mg/kg): more than 3 hrs; Maximum Inhibition of tachycardia (as a %) ([2]; oral dose 9 mg/kg): 40%; activation at 0.003 µg/mL (rabbit's heart; Oryctolagus cuniculus, dose 0.003 mg/l, increase (+) versus initial output, post-hypophysis 0.5 I.U./l, read-out: % Variation of coronary output): 13%; activation at 0.01 µg/mL (rabbit's heart; Oryctolagus cuniculus, dose 0.010 mg/l, increase (+) versus initial output, post-hypophysis 0.5 I.U./l, read-out: % Variation of coronary output): 57%; activation at 0.03 µg/mL (rabbit's heart; Oryctolagus cuniculus, dose 0.030 mg/l, increase (+) versus initial output, post-hypophysis 0.5 I.U./l, read-out: % Variation of coronary output): 133%; activation at 0.1 µg/mL (rabbit's heart; Oryctolagus cuniculus, dose 0.100 mg/l, increase (+) versus initial output, post-hypophysis 0.5 I.U./l, read-out: % Variation of coronary output): 225%; Duration of the effect (rabbit's heart; dose 0.003 mg/l): 3 min; Duration of the effect (rabbit's heart; dose 0.010 mg/l): 3 min; Duration of the effect (rabbit's heart; dose 0.030 mg/l): 15 min; Duration of the effect (rabbit's heart; dose 0.100 mg/l): 9 min; coronaro-dilatory effects (in words) (rabbit's heart; isolated rabbit heart): considerable coronaro-dilatory effects, whose intensity and duration clearly increase with the concentration
2 | CC(C)NCC(O)COc1ccccc1[C@H]1C[C@H]2CC[C@@H]1C2 (relative stereo) [Example 2, 1-isopropylamino-3-[2-(2-norbornyl endo)phenoxy]propan-2-ol] | 62 mg/kg | 675 mg/kg | approx. 40 mins | 20% | approx. 4 hrs | 67% | approx. 24 hrs | 64% | approx. 48 hrs | 60% | approx. 48 hrs | 80% | approx. 48 hrs | 81% | 0.3 µg/mL (≈ 0.989 µM) | 0.04 µg/mL (≈ 0.132 µM) | –
